In US9902696B2, “1,4-substituted piperidine derivatives” (Cephalon, Inc., priority 2015, dated 2018):
Counter-ions that a name gives are not always drawn. Like-named read-outs stand apart in the source and are kept apart here.

Biological target: T1, recombinant human baculovirus-expressed GST-tagged FASN (Homo sapiens, UniProt P49327)
T1 construct: GST
Assay: FASN enzyme activity assay, fluorescence-based detection of CoA with CPM
Assay type: biochemical
Conditions: 5 nM FASN, 150 μM NADPH, 10 μM acetyl-CoA, 25 μM malonyl-CoA, 90 minutes incubation
Summary of the method: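 Human GST-tagged FASN, baculovirus-expressed (5 nM), in 50 mM HEPES pH 7.5 with 150 μM NADPH, 10 μM acetyl-CoA, 25 μM malonyl-CoA, 0.5% DMSO; malonyl-CoA-started, 90 min. Released CoA detected with CPM (50 μM dilution), 30 min, fluorescence ex 390/em 530. IC50 from variable-slope sigmoidal fit of % inhibition versus log concentration.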

[1] = read-out: IC50 data for Compounds of Formulae I-V/V(a): Activity
[2] = read-out: IC50 data for Additional Compounds of Formulae I-V(a): Activity

T1 sequence (P49327 whole entry): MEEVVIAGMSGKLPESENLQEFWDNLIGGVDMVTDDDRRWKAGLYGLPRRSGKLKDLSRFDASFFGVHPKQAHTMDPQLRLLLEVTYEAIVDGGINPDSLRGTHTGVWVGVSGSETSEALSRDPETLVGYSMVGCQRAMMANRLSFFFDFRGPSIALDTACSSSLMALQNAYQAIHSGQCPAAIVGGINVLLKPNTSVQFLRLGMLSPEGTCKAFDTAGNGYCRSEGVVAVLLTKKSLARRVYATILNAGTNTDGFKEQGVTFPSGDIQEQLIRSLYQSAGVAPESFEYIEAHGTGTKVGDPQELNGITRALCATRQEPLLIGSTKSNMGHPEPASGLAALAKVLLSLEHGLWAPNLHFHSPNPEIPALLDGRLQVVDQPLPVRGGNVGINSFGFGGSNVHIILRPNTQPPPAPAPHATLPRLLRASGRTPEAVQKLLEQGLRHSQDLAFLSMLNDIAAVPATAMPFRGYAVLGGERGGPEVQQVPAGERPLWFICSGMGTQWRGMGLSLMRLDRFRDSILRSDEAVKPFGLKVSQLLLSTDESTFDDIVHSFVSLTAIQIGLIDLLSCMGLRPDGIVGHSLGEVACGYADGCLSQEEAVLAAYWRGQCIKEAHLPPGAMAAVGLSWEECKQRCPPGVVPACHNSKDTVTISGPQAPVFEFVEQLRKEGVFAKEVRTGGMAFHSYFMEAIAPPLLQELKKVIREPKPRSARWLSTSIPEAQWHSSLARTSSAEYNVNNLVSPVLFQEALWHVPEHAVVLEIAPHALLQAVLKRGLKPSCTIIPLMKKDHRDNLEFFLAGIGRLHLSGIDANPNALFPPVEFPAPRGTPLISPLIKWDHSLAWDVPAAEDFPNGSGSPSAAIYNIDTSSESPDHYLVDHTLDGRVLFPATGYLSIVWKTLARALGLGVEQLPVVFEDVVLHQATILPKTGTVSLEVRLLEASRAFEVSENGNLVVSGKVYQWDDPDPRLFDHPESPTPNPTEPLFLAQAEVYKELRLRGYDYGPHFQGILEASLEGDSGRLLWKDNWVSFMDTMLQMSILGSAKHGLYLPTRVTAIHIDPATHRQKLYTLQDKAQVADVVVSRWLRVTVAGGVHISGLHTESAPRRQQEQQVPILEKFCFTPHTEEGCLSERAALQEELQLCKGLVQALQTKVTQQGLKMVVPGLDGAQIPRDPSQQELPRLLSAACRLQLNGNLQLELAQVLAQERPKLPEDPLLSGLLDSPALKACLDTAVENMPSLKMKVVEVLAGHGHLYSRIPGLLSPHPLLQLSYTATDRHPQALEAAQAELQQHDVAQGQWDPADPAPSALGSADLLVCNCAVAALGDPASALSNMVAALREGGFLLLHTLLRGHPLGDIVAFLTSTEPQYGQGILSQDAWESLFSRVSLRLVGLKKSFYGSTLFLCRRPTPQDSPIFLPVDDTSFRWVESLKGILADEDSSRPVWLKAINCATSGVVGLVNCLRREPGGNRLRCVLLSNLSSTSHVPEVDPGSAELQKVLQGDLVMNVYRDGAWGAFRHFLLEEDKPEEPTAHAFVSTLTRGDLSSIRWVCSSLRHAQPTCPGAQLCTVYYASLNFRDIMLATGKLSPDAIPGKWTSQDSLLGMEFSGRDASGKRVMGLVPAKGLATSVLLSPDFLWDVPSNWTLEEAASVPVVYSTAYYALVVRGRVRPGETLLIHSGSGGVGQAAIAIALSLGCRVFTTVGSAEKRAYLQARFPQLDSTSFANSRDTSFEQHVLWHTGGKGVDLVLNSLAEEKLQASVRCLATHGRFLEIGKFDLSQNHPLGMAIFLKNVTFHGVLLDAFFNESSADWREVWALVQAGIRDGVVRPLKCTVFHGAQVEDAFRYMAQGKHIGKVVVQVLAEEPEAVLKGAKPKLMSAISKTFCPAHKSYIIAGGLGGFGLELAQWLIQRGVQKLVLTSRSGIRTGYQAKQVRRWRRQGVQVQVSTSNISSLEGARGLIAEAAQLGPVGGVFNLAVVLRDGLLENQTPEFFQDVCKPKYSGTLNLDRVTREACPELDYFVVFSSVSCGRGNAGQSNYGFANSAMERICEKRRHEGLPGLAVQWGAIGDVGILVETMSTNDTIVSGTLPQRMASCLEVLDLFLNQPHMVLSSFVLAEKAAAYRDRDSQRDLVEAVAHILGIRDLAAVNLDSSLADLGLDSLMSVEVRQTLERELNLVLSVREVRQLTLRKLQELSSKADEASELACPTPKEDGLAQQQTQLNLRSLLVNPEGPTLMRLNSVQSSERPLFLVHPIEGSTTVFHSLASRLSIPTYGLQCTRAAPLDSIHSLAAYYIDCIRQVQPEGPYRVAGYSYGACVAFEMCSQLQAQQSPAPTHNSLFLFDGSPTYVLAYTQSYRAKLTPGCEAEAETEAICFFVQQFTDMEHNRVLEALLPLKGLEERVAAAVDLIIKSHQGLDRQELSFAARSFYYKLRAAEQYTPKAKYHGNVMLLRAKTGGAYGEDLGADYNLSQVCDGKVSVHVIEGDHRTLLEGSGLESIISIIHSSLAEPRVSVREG

Compound	IC50 [1]	IC50 [2]
CNc1c(-c2ccc(OC3CCN(C(=O)[C@H]4CCCO4)CC3)cc2)cnc2ccccc12 [Example 236, {4-[4-(4-Methylaminoquinolin-3-yl)-phenoxy]-piperidin-1-yl}-(R)-tetrahydrofuran-2-yl-methanone]	100 to 999 nM	
CCC(=O)N1CCC(Oc2ccc(-c3cnc4cccc(F)c4c3)cc2)CC1 [Example 29, 1-{4-[4-(5-Fluoroquinolin-3-yl)-phenoxy]-piperidin-1-yl}-propan-1-one]	1 to 99 nM	
CCC(=O)N1CCC(Oc2ccc(-c3cnc4cc(OC)c(OC)cc4c3)cc2)CC1 [Example 55, 1-{4-[4-(6,7-Dimethoxyquinolin-3-yl)-phenoxy]-piperidin-1-yl}-propan-1-one]	1000 to 10000 nM	
CCC(=O)N1CCC(Sc2ccc(-c3cnc4ccccc4c3)cc2)CC1 [Example 518, 1-(4-((4-(Quinolin-3-yl)phenyl)thio)piperidin-1-yl)propan-1-one, HCl]	1 to 99 nM	
O=C(C1CC1)N1CCC(Oc2ccc(-c3ccc4cccnc4c3)nc2)CC1 [Example 146, Cyclopropyl-[4-(6-quinolin-7-yl-pyridin-3-yloxy)-piperidin-1-yl]-methanone, 2HCl]	1000 to 10000 nM	
CCC(=O)N1CCC(Oc2ccc(-c3ccc4ccccc4c3)cc2)CC1 [Example 10, 1-[4-(4-Naphthalen-2-yl-phenoxy)-piperidin-1-yl]-propan-1-one]	1 to 99 nM	
O=C([C@H]1CCCO1)N1CCC(Oc2ccc(-c3ccc4c(Cl)nccc4c3)cc2)CC1 [Example 429, {4-[4-(1-Chloroisoquinolin-6-yl)-phenoxy]-piperidin-1-yl}-(R)-tetrahydro-furan-2-yl-methanone]	1 to 99 nM	
Cc1c(-c2ccc(OC3CCN(C(=O)C4(N)CC4)CC3)cc2)ccc2nccn12 [Example 305, (1-Aminocyclopropyl)-{4-[4-(5-methyl-imidazo[1,2-a]pyridin-6-yl)-phenoxy]-piperidin-1-yl}-methanone]	100 to 999 nM	
CCC(=O)N1CCC(Oc2ccc(-c3cnc4ccccc4c3)nc2)CC1 [Example 140, 1-[4-(6-Quinolin-3-yl-pyridin-3-yloxy)-piperidin-1-yl]-propan-1-one, 2HCl]	1000 to 10000 nM	
O=C(C1CC1)N1CCC(Oc2ccc(-c3ccc(N4CCOCC4)nc3)cc2)CC1 [Example 387, Cyclopropyl-{4-[4-(6-morpholin-4-yl-pyridin-3-yl)-phenoxy]-piperidin-1-yl}-methanone]	1000 to 10000 nM	
CCc1nccc2cc(-c3ccc(OC4CCN(C(=O)[C@H]5CCCO5)CC4)cc3)ccc12 [Example 438, {4-[4-(1-Ethylisoquinolin-6-yl)-phenoxy]-piperidin-1-yl}-(R)-tetrahydro-furan-2-yl-methanone, HCl]	1 to 99 nM	
Cc1c(-c2ccc(OC3CCN(C(=O)C(C)(C)O)CC3)cc2)ccc2nccn12 [Example 310, 2-Hydroxy-2-methyl-1-{4-[4-(5-methyl-imidazo[1,2-a]pyridin-6-yl)-phenoxy]-piperidin-1-yl}-propan-1-one]	1000 to 10000 nM	
O=C([C@H]1CCCO1)N1CCC(Oc2ccc(-c3ccc4cccnc4c3OCCCN3CCCC3)cc2)CC1 [Example 184, (4-{4-[8-(3-Pyrrolidin-1-yl-propoxy)-quinolin-7-yl]-phenoxy}-piperidin-1-yl)-(R)-tetrahydrofuran-2-yl-methanone, HCl]	100 to 999 nM	
CCC(=O)N1CCC(Oc2ccc(-c3ccc4ccc(C)nc4c3F)cc2)CC1 [Example 25, 1-{4-[4-(8-Fluoro-2-methylquinolin-7-yl)-phenoxy]-piperidin-1-yl}-propan-1-one]	1000 to 10000 nM	
CCNC(=O)N1CCC(Oc2ccc(-c3cnc4ccccc4c3C)cc2)CC1 [Example 84, 4-[4-(4-Methylquinolin-3-yl)-phenoxy]-piperidine-1-carboxylic acid ethylamide]	1 to 99 nM	
Cc1cc(-c2cnc3ccccc3c2)ccc1OC1CCN(C(=O)C(C)C)CC1 [Example 213, 2-Methyl-1-[4-(2-methyl-4-quinolin-3-yl-phenoxy)-piperidin-1-yl]-propan-1-one]	1000 to 10000 nM	
CNC1(C(=O)N2CCC(Oc3ccc(-c4ccc5cccnc5c4C)cc3)CC2)CC1 [Example 622, [1-(Methylamino)cyclopropyl]-[4-[4-(8-methyl-7-quinolyl)phenoxy]-1-piperidyl]methanone]		1000 to 10000 nM
CC(C)C(=O)N1CCC(Sc2ccc(-c3cncc4ccccc34)cc2)CC1 [Example 523, 1-(4-((4-(Isoquinolin-4-yl)phenyl)thio)piperidin-1-yl)-2-methylpropan-1-one HCl]	1000 to 10000 nM	
Cc1c(-c2ccc(OC3CCN(C(=O)OC4CCCOC4)CC3)cc2)ccc2cccnc12 (stereo not drawn) [Example 557, Tetrahydropyran-3-yl 4-[4-(8-methyl-7-quinolyl)phenoxy]piperidine-1-carboxylate]		1000 to 10000 nM
O=C(C1CC1)N1CCC(Oc2ccc(-c3cncc(-c4ccccc4)c3)cc2)CC1 [Example 384, Cyclopropyl-{4-[4-(5-phenyl-pyridin-3-yl)-phenoxy]-piperidin-1-yl}-methanone, TFA salt]	1000 to 10000 nM	

Compound	IC50 [1]	IC50 [2]
CCC(=O)N1CCC(Oc2ccc(-c3cnc4sccc4c3)cc2)CC1 [Example 250, 1-[4-(4-Thieno[2,3-b]pyridin-5-yl-phenoxy)-piperidin-1-yl]-propan-1-one, TFA salt]	1 to 99 nM	
CCC(=O)N1CCC(Oc2ccc(-c3ccc4cccnc4c3Cl)cc2F)CC1 [Example 224, 1-{4-[4-(8-Chloroquinolin-7-yl)-2-fluorophenoxy]-piperidin-1-yl}-propan-1-one]	1 to 99 nM	
O=C(C1CC1)N1CCC(Oc2ccc(-c3ccc4c(Cl)ccnc4c3)cc2)CC1 [Example 258, {4-[4-(4-Chloroquinolin-7-yl)-phenoxy]-piperidin-1-yl}-cyclopropyl-methanone, TFA salt]	100 to 999 nM	
CCC(=O)N1CCC(Oc2ccc(-c3cnc4cccnc4c3)cc2)CC1 [Example 12, 1-[4-(4-1,5-Naphthyridin-3-yl-phenoxy)-piperidin-1-yl]-propan-1-one]	1000 to 10000 nM	
CCC(=O)N1CCC(Oc2ccc(-c3ccc(OC)c(OC)c3)cc2)CC1 [Example 491, 1-[4-(3′,4′-Dimethoxy-biphenyl-4-yloxy)-piperidin-1-yl]-propan-1-one]	100 to 999 nM	
CCCONC(=O)N1CCC(Oc2ccc(-c3ccc4nccn4c3C)cc2)CC1 [Example 607, 4-[4-(5-Methylimidazo[1,2-a]pyridin-6-yl)phenoxy]-N-propoxy-piperidine-1-carboxamide]		1000 to 10000 nM
Nc1c(-c2ccc(OC3CCN(C(=O)[C@H]4CCCO4)CC3)cc2)ccc2cccnc12 [Example 324, [4-[4-(8-Amino-7-quinolyl)phenoxy]-1-piperidyl]-[(2R)-tetrahydrofuran-2-yl]methanone]	1 to 99 nM	
CCC(=O)N1CCC(Oc2ccc(-c3cnc4ccccc4c3OC)cc2)CC1 [Example 50, 1-{4-[4-(4-Methoxyquinolin-3-yl)-phenoxy]-piperidin-1-yl}-propan-1-one]	100 to 999 nM	
Cc1ccc2ncccc2c1-c1ccc(OC2CCN(C(=O)C3CCCO3)CC2)cc1 (stereo in doubt) [Example 354, (R)-(4-(4-(6-Methylquinolin-5-yl)phenoxy)piperidin-1-yl)(tetrahydrofuran-2-yl)methanone]	1 to 99 nM	
Cc1nc2ccc(-c3ccc(OC4CCN(C(=O)C5CC5)CC4)cc3)cn2c1C [Example 291, Cyclopropyl-{4-[4-(2,3-dimethylimidazo[1,2-a]pyridin-6-yl)-phenoxy]-piperidin-1-yl}-methanone]	1000 to 10000 nM	
Cc1c(-c2ccc(OC3CCN(C(=O)NCC(C)C)CC3)cc2)ccc2cccnc12 [Example 541, N-Isobutyl-4-[4-(8-methyl-7-quinolyl)phenoxy]piperidine-1-carboxamide, HCl]		1 to 99 nM
Cc1cc(-c2ccc(OC3CCN(C(=O)[C@H]4CCCO4)CC3)cc2)cc2ncccc12 [Example 352, (R)-(4-(4-(5-Methylquinolin-7-yl)phenoxy)piperidin-1-yl)(tetrahydrofuran-2-yl)methanone]	1 to 99 nM	
Cc1c(-c2ccc(OC3CCN(C(=O)C4CCC4)CC3)cc2)ccc2cccnc12 [Example 38]	1 to 99 nM	
COc1ccc(-c2ccc(OC3CCN(C(=O)OC(C)(C)C)CC3)cc2)cc1OC [Example 489, 4-(3′,4′-Dimethoxybiphenyl-4-yloxy)-piperidine-1-carboxylic acid t-butyl ester]	1000 to 10000 nM	
Cc1c(-c2ccc(OC3CCN(C(=O)CO)CC3)cc2)ccc2cccnc12 [Example 626, 2-Hydroxy-1-[4-[4-(8-methyl-7-quinolyl)phenoxy]-1-piperidyl]ethanone]		1 to 99 nM
Cc1c(-c2ccc(OC3CCN(C(=O)[C@H](C)N)CC3)cc2)ccc2cccnc12 [Example 612, (2S)-2-Amino-1-[4-[4-(8-methyl-7-quinolyl)phenoxy]-1-piperidyl]propan-1-one 2HCl]		1 to 99 nM
CCC(=O)N1CCC(Oc2ccc(-c3ccc4cccnc4c3C)cc2)C(C)C1 (mixture of isomers) [Example 375, 1-{3-Methyl-4-[4-(8-methylquinolin-7-yl)-phenoxy]-piperidin-1-yl}-propan-1-one, TFA salt]	1 to 99 nM	
CCC(=O)N1[C@@H]2CC[C@H]1C[C@@H](Oc1ccc(-c3ccc4cccnc4c3C)cc1)C2 [Example 369, 1-{endo-3-[4-(8-Methylquinolin-7-yl)-phenoxy]-8-aza-bicyclo[3.2.1]oct-8-yl}-propan-1-one, HCl]	100 to 999 nM	
CCC(=O)N1CCC(Oc2ccc(-c3ccc4occc4c3)cc2)CC1 [Example 8, 1-[4-(4-Benzofuran-5-yl-phenoxy)-piperidin-1-yl]-propan-1-one]	100 to 999 nM	
